{
  "source": "patent US20220193060A1",
  "about": "“Inhibition of IL-1 Induced Inflammation” (THIOLAB, LLC., priority 2019, published 2022)",
  "key": {"IP-10": {"tested_on": "IP-10", "experiment": "LPS-stimulated RAW 264.7 cells, IP-10 secretion", "type": "cell-based", "conditions": "murine RAW 264.7 cells, pre-treatment prior to LPS", "experimental": "An in vitro model of inflammation mediated by macrophages is used. […] A murine macrophage cell line RAW264.7 (CCRL-2278) was also used. Macrophages are treated with CPDS. […] Then the effect of CPDS on inflammation is assessed by comparing the levels of anti-inflammatory mediators IL-6 and IL-10. IL-10 and IL-6 were determined by ELISA. The level of IL-6 and IL-10 were compared to the level prior to CPDS treatment. […] In addition we measured decrease in the secretion of IP-10."}, "[1]": {"tested_on": "non-malignant intraductal breast hyperplasia", "experiment": "Case: oral CPDS for breast hyperplasia", "type": "in vivo, human", "protocol": "An individual, diagnosed with non-malignant intraductal breast hyperplasia on the upper left quadrant of the left breast was treated with CPDS. […] CPDS was administered in 99.7% pure form in capsules without excipients."}, "RAW 264.7 cells": {"tested_on": "RAW 264.7 cells", "experiment": "Cell viability of RAW 264.7 cells", "type": "cell-based", "conditions": "murine RAW 264.7 cells"}, "IL-6": {"tested_on": "IL-6", "experiment": "LPS-stimulated macrophages, IL-6 ELISA", "type": "cell-based, murine", "protocol": "An in vitro model of inflammation mediated by macrophages is used. Primary macrophages isolated from humans or non-human species (e.g., mice or rats) were used. A murine macrophage cell line RAW264.7 (CCRL-2278) was also used. Macrophages are treated with CPDS. […] Then the effect of CPDS on inflammation is assessed by comparing the levels of […] mediators IL-6 and IL-10. IL-10 and IL-6 were determined by ELISA. The level of IL-6 and IL-10 were compared to the level prior to CPDS treatment."}, "colonic polyps": {"tested_on": "colonic polyps", "experiment": "Case: oral CPDS for colonic polyps", "type": "in vivo, human", "conditions": "person; oral 140 mg per day; 1, 3, 9, and 10 months", "protocol": "An individual was diagnosed with colon neoplasia. About one month after the initial diagnosis, the individual underwent semi colotomy at which time about 45 cm of their colon was removed. […] The polyps were cauterized at that time. About one month later, the individual began treatment with CPDS which was administered orally at a dose of 140 mg per day."}, "THP-1 cells": {"tested_on": "THP-1 cells", "experiment": "Cell viability of CPDS-treated THP-1 cells", "type": "cell-based, human", "protocol": "Methodology: The study included replicated tests of IL-1β levels with and without CPDS, as well as reference testing of untreated cells and cells treated with lactoferrin and clobetasol. A third test was conducted of IL-1 receptor […] (IL-1RA) receptor, to assist in distinguishing whether reductions in IL-1β levels were associated with secretion or receptor blocking (via the receptor antagonist). Cell viability studies were conducted for both sets of tests. 1. THP-1 cells were grown in (RPMI+10% FBS, 10 mM HEPES, 1 mM Sodium Pyruvate, and 0.05 mM 2-Mecaptpethanol) to P8. 2. Cells were plated at 30,000 cells per well in 120 ul with Media+20 ng/ml PMA+2× Genta. 3. […] Cells were treated according to plan below. 5. Cells were incubated for three more days at 37° C. and 5% CO2. 6. Cell supernatant were collected and ELISA was measured for IL-1RA, IL-1α, and IL-1β. 7. Plate was read at 490 nm until O.D reached 1.5."}, "arthritic psoriasis": {"tested_on": "arthritic psoriasis", "experiment": "Case: oral CPDS for arthritic psoriasis", "type": "in vivo, human", "conditions": "oral 140 mg/day, 4 days a week", "protocol": "The patient was a person. Their disease began 1 year previously. Their main complaint was pain in their right wrist, which prevented them from using their right hand and arm; they had bothersome itching cutaneous psoriatic lesions. Treatment at the time consisted of cortisone (5 mg/day) and non-steroidal anti-inflammatory drugs and weekly administrations of methotrexate (MTX) 5 mg/week. The side effects of MTX were severe stomach, throat, and mouth lesions, nightmares, visual hallucinations, and dizziness. The patient began taking oral CPDS 90 days previous (140 mg/day), 4 days a week. Within a few days, the side effects of MTX became much milder, and their immune defenses increased. Instead of catching a cold, as they had often, that lasted for weeks and needed antibiotics, their colds were much more brief normal duration."}},
  "note": "“Also recorded” adds a separate entry of the source.",
  "data": [
    {"smiles": "O=C(O)c1ccc(SSc2ccc(C(=O)O)cn2)nc1", "note": "[CPDS, 6,6′-dithiodinicotinic acid]", "values": [
      {"measurement": "secretion of IP-10", "setting": "IP-10", "value": "decrease"},
      {"measurement": "pain in breast and axilla", "setting": "[1]; after commencing oral 140 mg per day", "value": "subsided within two days"},
      {"measurement": "pain following discontinuation of CPDS", "setting": "[1]; after discontinuation", "value": "returned within two to three days"},
      {"measurement": "side effect", "setting": "[1]; oral 140 mg per day", "value": "No side effect"},
      {"measurement": "growth of breast hyperplasia (mammograms)", "setting": "[1]; person, oral 140 mg per day, forty-eight months", "value": "stopped growing"},
      {"measurement": "cytotoxicity (cell viability)", "setting": "RAW 264.7 cells", "value": "no cytotoxicity"},
      {"measurement": "IL-6 levels / expression", "setting": "IL-6; FIG. 3, macrophages inflamed by LPS, dosage series of CPDS", "value": "dramatically reduced; also recorded: concentration dependent diminution"},
      {"measurement": "expression level of IL-6", "setting": "IL-6; macrophages, CPDS (e.g., 50 μM) 90 minutes before LPS (10 ug/ml), 24 to 48 hours", "value": "dramatically reduced"},
      {"measurement": "activity on IL-6 compared with DEX", "setting": "IL-6; murine RAW 264.7 cells, LPS", "value": "more active"},
      {"measurement": "secretion of IL-6", "setting": "IL-6; murine RAW 264.7 cells, pre-treatment prior to LPS", "value": "drastically reduced"},
      {"measurement": "growth of polyps at check-up visits", "setting": "colonic polyps", "value": "no new growth"},
      {"measurement": "cell viability", "setting": "THP-1 cells; 200 μM", "value": "slight decline in viability"},
      {"measurement": "cell viability", "setting": "THP-1 cells; all CPDS concentrations except 200 μM, both tests", "value": "≥ 100", "unit": "%"},
      {"measurement": "immune defenses", "setting": "arthritic psoriasis", "value": "increased"},
      {"measurement": "function of right hand and wrist", "setting": "arthritic psoriasis; 90 days", "value": "regained function"},
      {"measurement": "side effects of MTX", "setting": "arthritic psoriasis; person, within a few days", "value": "much milder"}
    ]}
  ]
}
